# From patent US20200377459A1, “CHARGED ION CHANNEL BLOCKERS AND METHODS FOR USE” (President and Fellows of Harvard College, priority 2015, published 2020)
# How the values were obtained:
# human Nav1.7 channels = molecular target: T1, human Nav1.7 channels (Homo sapiens, UniProt Q15858); assay: Whole-cell patch clamp, use-dependent block of sodium current, drug applied intracellularly or externally; type: cell-based; conditions: for effect on sodium current when applied externally versus inside the cell: same protocol, applied outside the cell
# T1 construct: expressed in transfected cells
# T1 sequence (Q15858 whole entry): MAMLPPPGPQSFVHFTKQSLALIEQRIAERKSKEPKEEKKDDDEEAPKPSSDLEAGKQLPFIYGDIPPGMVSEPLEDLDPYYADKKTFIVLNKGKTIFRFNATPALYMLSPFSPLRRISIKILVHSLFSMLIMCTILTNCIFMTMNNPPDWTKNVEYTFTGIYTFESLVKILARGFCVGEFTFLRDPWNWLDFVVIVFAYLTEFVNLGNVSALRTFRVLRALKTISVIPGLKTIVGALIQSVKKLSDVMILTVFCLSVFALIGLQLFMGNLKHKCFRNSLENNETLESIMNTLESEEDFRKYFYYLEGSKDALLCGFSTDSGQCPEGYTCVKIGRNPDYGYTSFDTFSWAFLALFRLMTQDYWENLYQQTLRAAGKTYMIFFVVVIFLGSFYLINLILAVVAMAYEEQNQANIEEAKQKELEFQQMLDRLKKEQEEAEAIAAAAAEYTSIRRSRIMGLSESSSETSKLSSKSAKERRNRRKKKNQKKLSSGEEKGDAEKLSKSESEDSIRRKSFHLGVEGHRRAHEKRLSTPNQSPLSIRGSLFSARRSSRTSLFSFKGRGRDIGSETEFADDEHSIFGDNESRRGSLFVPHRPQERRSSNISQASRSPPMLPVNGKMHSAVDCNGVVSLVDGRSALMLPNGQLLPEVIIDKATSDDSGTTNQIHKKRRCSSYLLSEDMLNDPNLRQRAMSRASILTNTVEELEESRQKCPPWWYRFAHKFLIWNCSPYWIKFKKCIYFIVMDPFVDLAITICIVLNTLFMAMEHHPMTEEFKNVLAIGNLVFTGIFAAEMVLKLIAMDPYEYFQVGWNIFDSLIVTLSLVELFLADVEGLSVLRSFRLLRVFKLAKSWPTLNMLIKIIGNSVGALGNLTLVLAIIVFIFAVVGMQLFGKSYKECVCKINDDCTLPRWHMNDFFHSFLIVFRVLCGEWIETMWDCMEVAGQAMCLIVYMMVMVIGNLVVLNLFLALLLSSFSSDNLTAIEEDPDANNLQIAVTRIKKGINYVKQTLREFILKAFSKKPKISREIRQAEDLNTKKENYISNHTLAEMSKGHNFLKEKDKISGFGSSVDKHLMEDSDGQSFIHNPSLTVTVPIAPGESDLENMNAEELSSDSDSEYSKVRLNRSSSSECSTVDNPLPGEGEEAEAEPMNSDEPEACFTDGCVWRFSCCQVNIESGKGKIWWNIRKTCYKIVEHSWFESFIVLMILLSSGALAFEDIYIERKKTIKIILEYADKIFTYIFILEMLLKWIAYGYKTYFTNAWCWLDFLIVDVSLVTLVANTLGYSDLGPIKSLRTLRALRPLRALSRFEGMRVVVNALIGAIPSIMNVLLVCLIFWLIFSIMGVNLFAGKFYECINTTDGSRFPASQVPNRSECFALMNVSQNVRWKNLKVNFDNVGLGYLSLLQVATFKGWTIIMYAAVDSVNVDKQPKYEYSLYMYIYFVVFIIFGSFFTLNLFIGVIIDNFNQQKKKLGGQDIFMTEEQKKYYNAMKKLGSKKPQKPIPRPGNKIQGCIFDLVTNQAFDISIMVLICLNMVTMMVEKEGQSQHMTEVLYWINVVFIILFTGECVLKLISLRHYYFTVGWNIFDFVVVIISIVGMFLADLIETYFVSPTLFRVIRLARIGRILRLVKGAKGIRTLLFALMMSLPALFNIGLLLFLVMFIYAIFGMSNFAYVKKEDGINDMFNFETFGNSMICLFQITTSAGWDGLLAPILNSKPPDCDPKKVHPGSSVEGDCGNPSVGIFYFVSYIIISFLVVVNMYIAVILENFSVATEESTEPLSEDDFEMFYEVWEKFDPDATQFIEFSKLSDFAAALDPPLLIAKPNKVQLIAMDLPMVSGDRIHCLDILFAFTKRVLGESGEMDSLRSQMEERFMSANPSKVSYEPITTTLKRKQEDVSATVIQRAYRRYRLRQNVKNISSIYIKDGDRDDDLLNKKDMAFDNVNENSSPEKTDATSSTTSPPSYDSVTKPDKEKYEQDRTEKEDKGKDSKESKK
# Method: Whole-cell recordings were made of currents carried by voltage-activated channels in HEK293 cells stably expressing human Nav1.7 channels. Recordings were made using patch pipettes with resistances of 2-3.5 MQ when filled with internal solution, consisting of 61 mM CsF, 61 mM CsCl, 9 mM NaCl, 1.8 mM MgCl2, 9 mM EGTA, 14 mM creatine phosphate (tris salt), 4 mM MgATP, and 0.3 mM GTP (tris salt), 9 mM HEPES, pH adjusted to 7.2 with CsOH. The shank of the electrode was wrapped with Parafilm in order to reduce capacitance and allow optimal series resistance compensation without oscillation. Seals were obtained and the whole-cell configuration established with cells in Tyrode's solution (155 mM NaCl, 3.5 mM KCl, 1.5 mM CaCl2), 1 mM MgCl2, 10 mM HEPES, 10 mM glucose, pH adjusted to 7.4 with NaOH) with 10 mM TEACl. To ensure complete dialysis with pipette solution, recordings began after 5 to 10 min after establishment of the whole-cell configuration.
# Currents were recorded at room temperature (21-23° C.) with an Axopatch 200 amplifier and filtered at 5 kHz with a low-pass Bessel filter. The amplifier was tuned for partial compensation of series resistance (typically 70-80% of a total series resistance of 4-10 MO). Currents were digitized using a Digidata 1322A data acquisition interface controlled by pClamp9.2 software (Axon Instruments) and analyzed using programs written in Igor Pro 4.0 (Wavemetrics, Lake Oswego, Oreg.). Currents were corrected for linear capacitative and leak currents determined using 5 mV hyperpolarizations delivered from the resting potential (usually −80 or −100 mV) and then appropriately scaled and subtracted.
# Sodium currents were evoked by 30-msec depolarizations from −100 mV to −20 mV. To assay use-dependent block, pulses were delivered at series of increasing rates: 0.05 Hz for 1-min, 0.33 Hz for 1-min, 1 Hz for 1-min, 3 Hz for 1-min, 5 Hz for 30 seconds, 10 Hz for 30 seconds, with 1 minute rest between each series of pulses. After the series of pulses to induce use-dependent block, the time course of recovery was followed using pulses delivered at 01. Hz (2-min) and 0.05 Hz (1-min).
# To induce use-dependent block, the depolarizations were delivered by series of increasing rates: 0.05 Hz for 1-min, 0.33 Hz for 1-min, 1 Hz for 1-min, 3 Hz for 1-min, 5 Hz for 30 seconds, 10 Hz for 30 seconds, with 1 minute rest between each series of pulses. After the series of pulses to induce use-dependent block, the time course of recovery was followed using pulses delivered at 01. Hz (2-min) and 0.05 Hz (1-min). Peak sodium current was plotted as a function of experimental time (1-min per division on the time axis).
# [1] = tested on: thermal nociceptive threshold; assay: Thermal nociceptive threshold after acute intraplantar injection in naive animals; type: in vivo, rats; conditions: naïve animals
# [2] = tested on: CFA-induced thermal hyperalgesia; assay: CFA-induced thermal hyperalgesia (Hargreaves radiant heat, hind paw); type: in vivo; conditions: mice, intraplantar co-injection with CFA, 1%
# Method: FIGS. 2A-2D show reversal of CFA-induced thermal hyperalgesia by charged sodium channel blockers. FIGS. 2A and 2C show time course (0, 1, 6, and 24 hours) of changes in thermal nociceptive sensitivity measured as response latency (seconds) to a constant radiant heat source applied to the plantar surface of hind paw in mice co-treated with 20 μL (injected in the left hindpaw) of CFA (50% emulsion) and saline, and when the CFA was co-applied with QX-314 (1%, hollow square), N-ethyl etidocaine (Compound 21, 1%; dark square), or ACS8180-3B (Compound 3, 1%; solid triangle). FIGS. 2B and 2D show the nociceptive heat pain response time before CFA treatment and after treatment with the different compounds 1 hour post CFA injection. The data are means±SEM of 8-16 mice per group. The statistical comparison with pre-CFA (*) and with CFA+Vehicle (+) is indicated by +P<0.05; ++P<0.01 and +++,*** P<0.001. All procedures were approved by the Institutional Animal Care and Use Committees. Mice and rats were housed in standard environmental conditions (12-h light/dark cycle; 23° C.; food and water ad libitum) at facilities accredited by the Association for Assessment and Accreditation of Laboratory Animal Care. 8-week old male BALB/c (stock number: 001026) and C57BL/6J (stock number 000664) mice were purchased from Jackson Laboratory and respectively used in allergic airway inflammation (FIG. 5) and pain hypersensitivity model (FIGS. 2A-2D). 6-week old male Sprague-Dawley (stock number: 400) rats, 150±25 grams, were purchased from Charles River laboratory and used to assess pain hypersensitivity (FIG. 3). The compounds were injected in the plantar surface of each animal's right hind paw in 10 μl (mice) or 50 μl (rats) volume of 1:1 emulsion of Complete Freund's Adjuvant (CFA). […] On the 4th day, their thermal nociceptive threshold was evaluated. […] Impact of treatment was analyzed 1 h prior and 1, 3, 6 and 24 h post-treatment. […] With each reading the apparatus was set with a cut-off time of 32 s.
inhibition at 100 µM (human Nav1.7 channels) [%],Compound,also measured
40,"Cc1cccc(C)c1NC(=O)C(C)[N+]1(C)CCCC1 (stereo not shown) [Compound 1, 1-(1-(2,6-dimethylphenylamino)-1-oxopropan-2-yl)-1-methylpyrrolidinium Chloride]",–
42,"Cc1cccc(C)c1NC(=O)C(C)(C)[N+]1(C)CCCC1 [Compound 2, 1-(1-(2,6-dimethylphenylamino)-2-methyl-1-oxopropan-2-yl)-1-methylpyrrolidinium Chloride]",–
43,"Cc1cccc(C)c1NC(=O)C(C)[N+]1(C)CCCCC1 (stereo not shown) [Compound 4, 1-(1-(2,6-dimethylphenylamino)-1-oxopropan-2-yl)-1-methylpiperidinium Chloride]",–
34,"Cc1cccc(C)c1NC(=O)C(C)(C)[N+]1(C)CCCCC1 [Compound 5, 1-(1-(2,6-dimethylphenylamino)-2-methyl-1-oxopropan-2-yl)-1-methylpiperidinium Chloride]",–
83,"CCC(C(=O)Nc1c(C)cccc1C)[N+]1(CC)CCCCC1 (stereo not shown) [Compound 6, 1-(1-(2,6-dimethylphenylamino)-1-oxobutan-2-yl)-1-ethylpiperidinium]","use dependent accumulation of block (human Nav1.7 channels; 100 micromolar inside cell, stimulation frequencies from 1 to 10 Hz): strong use dependent accumulation of block; effect on sodium current when applied externally versus inside the cell (human Nav1.7 channels): far more effective when applied inside the cell; effect on sodium current when applied externally versus inside the cell (human Nav1.7 channels; listed as compound 6): very little effect"
33,"Cc1cccc(C)c1NC(=O)C1CCC[N+]1(C)C (stereo not shown) [Compound 13, 2-(2,6-dimethylphenylcarbamoyl)-1,1-dimethylpyrrolidinium Chloride]",–
62,"CC[N+]1(CC)CCCC1C(=O)Nc1c(C)cccc1C (stereo not shown) [Compound 14, 2-(2,6-dimethylphenylcarbamoyl)-1,1-diethylpyrrolidinium Chloride]",–
40,"CC[N+]1(CC)CCCCC1C(=O)Nc1c(C)cccc1C (stereo not shown) [Compound 15, 2-(2,6-dimethylphenylcarbamoyl)-1,1-diethylpiperidinium Chloride]",–
70,"Cc1cc(F)cc(C)c1NC(=O)C1CCCC[N+]1(C)C (stereo not shown) [Compound 16, 2-(4-fluoro-2,6-dimethylphenylcarbamoyl)-1,1-dimethylpiperidinium Chloride]",–
0,"CC[N+](CC)(CC)CC(=O)Nc1ccc(N)cc1 [Compound 22, 2-(4-aminophenylamino)-N,N,N-triethyl-2-oxoethanaminium]",–
15,"CC[N+](CC)(CC)CCC(=O)Nc1c(C)cccc1C [Compound 24, 3-(2,6-dimethylphenylamino)-N,N,N-triethyl-3-oxopropan-1-aminium Chloride]",–
3,CC[N+](CC)(CC)CCNC(=O)c1c(C)cccc1C [Compound 25],–

Compound,inhibition at 100 µM (human Nav1.7 channels) [%],also measured
"CCC(C(=O)Nc1c(C)cccc1C)[N+]1(CC)CCCC1 (stereo not shown) [Compound 3, 1-(1-(2,6-dimethylphenylamino)-1-oxobutan-2-yl)-1-ethylpyrrolidinium Chloride]",78,long lasting analgesia in naïve animals [1]: without long lasting analgesia; reversal of CFA-induced thermal hyperalgesia [2]: potent blockade
"CC[N+](CC)(CC)CC(=O)Nc1c(C)cc(N)cc1C [Compound 23, 2-(4-amino-2,6-dimethylphenylamino)-N, N, N-triethyl-2-oxoethanaminium Chloride]",56,–
